A word on the MIC50: it is the lowest concentration that inhibits either 50% of growth or 50% of the strains tested, depending on the study. A word on the MIC90: it is an inhibitory concentration at the 90% level, which refers to growth in some studies and to a panel of isolates in others.

From US20170107179A1 (Tetraphase Pharmaceuticals, Inc., priority 2010, published 2017) come the findings set out here.

SMILES strings stand for the structures. Converted amounts (≈) assume the structure as drawn. Like-named read-outs stand apart in the source and are kept apart here. Some results are limits rather than exact numbers.

The test system of one assay is S. aureus Smith. The assay is described as follows: Mouse systemic infection (septicemia) model, CD-1 mice. The settings on record: Staphylococcus aureus, in Mus musculus, 48 h; for responders at 3 mg/kg: iv, read-out: Percent survival at 48 hours, IV (3 mg/kg); for responders at 30 mg/kg: po, read-out: Percent survival at 48 hours, PO (30 mg/kg).
Assay [1] relates to Gram-negative and Gram-positive organisms (clinical isolates). The assay is described as follows: Broth microdilution MIC against clinical isolates (CLSI M7-A8), Table 9. Format: cell-based. (In broth dilution the organism is exposed to a series of concentrations in liquid medium.)
Setting [2] is: Klebsiella aerogenes, Enterobacter aerogenes, n=30.
Where [3] appears, read: Klebsiella pneumoniae, Klebsiella pneumonia, n=27.
Where [4] appears, read: Stenotrophomonas maltophilia, n=29.

With `CN(C)c1c2c(c(O)c3c1C[C@H]1C[C@H]4[C@H](N(C)C)C(O)=C(C(N)=O)C(=O)[C@@]4(O)C(O)=C1C3=O)CN(C(C)(C)C)C2` [Compound 115], in the assay on S. aureus Smith, the responders at 3 mg/kg worked out at 100% and the responders at 30 mg/kg is 100%.

Take `CCC(C)(C)N1Cc2c(O)c3c(c(N(C)C)c2C1)C[C@H]1C[C@H]2[C@H](N(C)C)C(O)=C(C(N)=O)C(=O)[C@@]2(O)C(O)=C1C3=O` [Compound 103]: in the assay on S. aureus Smith, the responders at 3 mg/kg was 83% and the responders at 30 mg/kg is 100%.

On to `CC(C)C[C@H]1NCc2c(F)c3c(c(O)c2NC1=O)C(=O)C1=C(O)[C@]2(O)C(=O)C(C(N)=O)=C(O)[C@@H](N(C)C)[C@@H]2C[C@@H]1C3` [Compound 419], for which, in the assay on S. aureus Smith, the responders at 3 mg/kg worked out at 100% and the responders at 30 mg/kg is 40%.

Turning to `CC(C)(O/N=C(\C(=O)N[C@@H]1C(=O)N2C(C(=O)[O-])=C(C[n+]3ccccc3)CS[C@H]12)c1csc(N)n1)C(=O)O` [Ceftazidime], the MIC50 in assay [1] (Acinetobacter lwoffii, n=29) was 1 µg/mL (≈ 1.83 µM); in assay [1] (Enterobacter cloacae, n=29) it was greater than 64 µg/mL; in assay [1] (Escherichia coli, n=40), 64 µg/mL (≈ 117 µM); in assay [1] (Kiebsielia oxytoca, n=30) it was no more than 0.5 µg/mL; in assay [1] (setting [2]), no more than 0.5 µg/mL; in assay [1] (setting [3]), greater than 64 µg/mL. The MIC50 in assay [1] (Morganella morganii, n=30) is no more than 0.5 µg/mL; in assay [1] (Proteus vulgaris, n=29), no more than 0.5 µg/mL; in assay [1] (Salmonella species, n=30, read-out: MIC50), no more than 0.5 µg/mL; in assay [1] (Serratia marcescens, n=30) it was no more than 0.5 µg/mL; in assay [1] (setting [4]) it was 8 µg/mL (≈ 14.6 µM). In addition, the MIC90 is 16 µg/mL (≈ 29.3 µM) in assay [1] (Acinetobacter lwoffii, n=29); greater than 64 µg/mL in assay [1] (Enterobacter cloacae, n=29); greater than 64 µg/mL in assay [1] (Escherichia coli, n=40); no more than 0.5 µg/mL in assay [1] (Kiebsielia oxytoca, n=30); 16 µg/mL (≈ 29.3 µM) in assay [1] (setting [2]); greater than 64 µg/mL in assay [1] (setting [3]). Further, the MIC90 is 4 µg/mL (≈ 7.32 µM) in assay [1] (Morganella morganii, n=30); greater than 64 µg/mL in assay [1] (Proteus vulgaris, n=29); no more than 0.5 µg/mL in assay [1] (Serratia marcescens, n=30); greater than 64 µg/mL in assay [1] (setting [4]).

In the case of `CC[C@@H](C)N1Cc2c(O)c3c(c(C(F)(F)F)c2C1)C[C@H]1C[C@H]2[C@H](N(C)C)C(O)=C(C(N)=O)C(=O)[C@@]2(O)C(O)=C1C3=O` [Compound 128], in the assay on S. aureus Smith, the responders at 3 mg/kg worked out at 17% and the responders at 30 mg/kg turned out to be 0%.

For the compound `CC(C)N1Cc2c(O)c3c(c(N(C)C)c2C1)C[C@H]1C[C@H]2[C@H](N(C)C)C(O)=C(C(N)=O)C(=O)[C@@]2(O)C(O)=C1C3=O` [Compound 135], in the assay on S. aureus Smith, the responders at 3 mg/kg was determined as 100% and the responders at 30 mg/kg is 100%.

As for `CN(C)[C@@H]1C(O)=C(C(N)=O)C(=O)[C@@]2(O)C(O)=C3C(=O)c4c(O)c5c(c(C(F)(F)F)c4C[C@H]3C[C@@H]12)CN(C(C)(C)C)C5` [Compound 112], in the assay on S. aureus Smith, the responders at 3 mg/kg was found to be 100% and the responders at 30 mg/kg stood at 20%.
